Measured values: US20260317320A1, “C5AR1 ANTAGONISTS AND USES THEREOF” (Vanqua Bio, Inc., priority 2022, published 2026)
pIC50: −log10 of the molar value.

Key:
[1] = target: T1, complement C5a receptor 1 (C5aR1) (Homo sapiens, UniProt P21730); assay: β-arrestin recruitment via C5aR1 activation in live CHO-K1 cells (PathHunter), agonist mode; assay type: cell-based
T1 construct: β-galactosidase fragment (PathHunter enzyme complementation); host or cells: CHO-K1 (PathHunter CHO-K1 C5aR1 β-arrestin cell line)
T1 sequence (P21730 1-350): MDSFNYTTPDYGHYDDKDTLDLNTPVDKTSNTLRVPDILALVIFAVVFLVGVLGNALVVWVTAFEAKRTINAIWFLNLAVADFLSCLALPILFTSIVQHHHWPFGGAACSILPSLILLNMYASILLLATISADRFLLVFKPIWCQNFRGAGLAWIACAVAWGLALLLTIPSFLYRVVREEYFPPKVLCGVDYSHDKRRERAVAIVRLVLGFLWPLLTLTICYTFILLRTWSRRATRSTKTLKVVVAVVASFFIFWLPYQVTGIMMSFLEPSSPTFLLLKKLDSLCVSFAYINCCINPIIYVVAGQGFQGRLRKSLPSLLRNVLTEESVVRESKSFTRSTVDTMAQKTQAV
In short: (§1)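 Live CHO-K1 cells carry two galactosidase enzyme fragments, one fused to β-arrestin and one to C5aR1, so that β-arrestin recruitment restores enzyme activity. Agonist mode tests compounds alone. Antagonist mode tests them against recombinant hC5a at EC90, and IC50 values are reported in binned ranges.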

[2] = target: T1, complement C5a receptor 1 (C5aR1); assay: β-arrestin recruitment via C5aR1 activation in live CHO-K1 cells (PathHunter), antagonist mode; assay type: cell-based; settings: antagonist mode; recombinant hC5a (EC90) as competing natural agonist; live CHO-K1 cells; read-out: [Antagonist] B-arrestin2 recruitment: Average IC50
In short: as §1

| Compound | [Agonist] B-arrestin2 recruitment: Average EC50 (nM) [1] | pIC50 [2] |
| --- | --- | --- |
| Cc1ccc2cc([C@H]3CC[C@H](c4cnccc4C(F)(F)F)CC3)c(=O)n(Cc3ncccc3C(C)(F)F)c2n1 [compound 254, 1-{[3-(1,1-Difluoroethyl)-2-pyridyl]methyl}-7-methyl-3-{(1r,4r)-4-[4-(trifluoromethyl)-3-pyridyl]cyclohexyl}-1,8-diaza-2(1H)-naphthalenone] | Non-Active | > 6.30 |
| Cc1ccc2cc([C@H]3CC[C@H](c4c(C)ccnc4F)CC3)c(=O)n(Cc3ncccc3OC(F)(F)F)c2n1 [compound 255, 7-Methyl-3-[(1r,4r)-4-(2-fluoro-4-methyl-3-pyridyl)cyclohexyl]-1-[(3-trifluoromethoxy-2-pyridyl)methyl]-1,8-diaza-2(1H)-naphthalenone] | Non-Active | > 6.30 |
| COc1nccc(C)c1[C@H]1CC[C@H](c2cc3ccc(C)nc3n(Cc3ncccc3C(C)(F)F)c2=O)CC1 [compound 256, 1-{[3-(1,1-Difluoroethyl)-2-pyridyl]methyl}-7-methyl-3-[(1r,4r)-4-(2-methoxy-4-methyl-3-pyridyl)cyclohexyl]-1,8-diaza-2(1H)-naphthalenone] | Non-Active | > 6.30 |
| Cc1ccc2cc([C@H]3CC[C@H](c4c(C)cccc4F)CC3)c(=O)n(Cc3nccnc3C3CC3)c2n1 [compound 257, 1-[(3-Cyclopropyl-2-pyrazinyl)methyl]-7-methyl-3-[(1r,4r)-4-(2-fluoro-6-tolyl)cyclohexyl]-1,8-diaza-2(1H)-naphthalenone] | Non-Active | > 6.30 |
| Cc1ccc2cc([C@H]3CC[C@H](c4c(C)ccnc4F)CC3)c(=O)n(Cc3ncccc3C(C)(F)F)c2n1 [compound 258, 1-((3-(1,1-difluoroethyl)pyridin-2-yl)methyl)-3-((1r,4r)-4-(2-fluoro-4-methylpyridin-3-yl)cyclohexyl)-7-methyl-1,8-naphthyridin-2(1H)-one] | Non-Active | > 6.30 |
| Cc1ccc2cc([C@H]3CC[C@H](c4c(C)ccnc4F)CC3)c(=O)n(Cc3ncccc3CC(F)(F)F)c2n1 [compound 259, 7-Methyl-3-[(1r,4r)-4-(2-fluoro-4-methyl-3-pyridyl)cyclohexyl]-1-{[3-(2,2,2-trifluoroethyl)-2-pyridyl]methyl}-1,8-diaza-2(1H)-naphthalenone] | Non-Active | > 6.30 |
| COc1nccc(C)c1[C@H]1CC[C@H](c2cc3ccc(C)nc3n(Cc3ncccc3CC(F)(F)F)c2=O)CC1 [compound 260, 7-Methyl-3-[(1r,4r)-4-(2-methoxy-4-methyl-3-pyridyl)cyclohexyl]-1-{[3-(2,2,2-trifluoroethyl)-2-pyridyl]methyl}-1,8-diaza-2(1H)-naphthalenone] | Non-Active | > 6.30 |
| COc1nccc(C)c1[C@H]1CC[C@H](c2cc3ccc(C)nc3n(Cc3ncccc3OC(F)(F)F)c2=O)CC1 [compound 261, 7-Methyl-3-[(1r,4r)-4-(2-methoxy-4-methyl-3-pyridyl)cyclohexyl]-1-[(3-trifluoromethoxy-2-pyridyl)methyl]-1,8-diaza-2(1H)-naphthalenone] | Non-Active | > 6.30 |
| Cc1ccc2cc([C@H]3CC[C@H](c4c(C)ccnc4F)CC3)c(=O)n(Cc3ncccc3C(F)(F)F)c2n1 [compound 262, 7-Methyl-3-[(1r,4r)-4-(2-fluoro-4-methyl-3-pyridyl)cyclohexyl]-1-{[3-(trifluoromethyl)-2-pyridyl]methyl}-1,8-diaza-2(1H)-naphthalenone] | Non-Active | > 6.30 |
| Cc1ccc2cc([C@H]3CC[C@H](c4c(C)cccc4F)CC3)c(=O)n(Cc3nccnc3OCC(F)F)c2n1 [compound 263, 1-{[3-(2,2-Difluoroethoxy)-2-pyrazinyl]methyl}-7-methyl-3-[(1r,4r)-4-(2-fluoro-6-tolyl)cyclohexyl]-1,8-diaza-2(1H)-naphthalenone] | Non-Active | > 6.30 |
| Cc1ccc2cc([C@H]3CC[C@H](c4c(C)cccc4F)CC3)c(=O)n(Cc3nccnc3OCC(F)(F)F)c2n1 [compound 264, 7-Methyl-3-[(1r,4r)-4-(2-fluoro-6-tolyl)cyclohexyl]-1-{[3-(2,2,2-trifluoroethoxy)-2-pyrazinyl]methyl}-1,8-diaza-2(1H)-naphthalenone] | Non-Active | > 6.30 |
| Cc1cnc2cc(C3CCCCC3)c(=O)n(Cc3ncccc3C(F)(F)F)c2n1 [compound 265, 7-Cyclohexyl-3-methyl-5-{[3-(trifluoromethyl)-2-pyridyl]methyl}-1,4,5-triaza-6(5H)-naphthalenone] | Non-Active | 5.30 to 6.30 |
| Cc1cnc2cc([C@H]3CC[C@H](c4c(F)cnc5c4cnn5C)CC3)c(=O)n(Cc3ncccc3C(F)(F)F)c2n1 [compound 266, 3-Methyl-7-[(1r,4r)-4-(5-fluoro-1-methyl-1H-1,2,7-triazainden-4-yl)cyclohexyl]-5-{[3-(trifluoromethyl)-2-pyridyl]methyl}-1,4,5-triaza-6(5H)-naphthalenone] | Non-Active | 4.00 to 5.30 |
| Cc1cccc(F)c1[C@H]1CC[C@H](c2cc3ncc(C(C)(F)F)nc3n(Cc3ncccc3C(F)(F)F)c2=O)CC1 [compound 267, 3-(1,1-Difluoroethyl)-7-[(1r,4r)-4-(2-fluoro-6-tolyl)cyclohexyl]-5-{[3-(trifluoromethyl)-2-pyridyl]methyl}-1,4,5-triaza-6(5H)-naphthalenone] | Non-Active | > 6.30 |
| Cc1ccc2cc([C@H]3CC[C@H](c4c(C)cccc4F)CC3)c(=O)n(Cc3ncccc3CC(F)F)c2n1 [compound 268, 1-{[3-(2,2-Difluoroethyl)-2-pyridyl]methyl}-7-methyl-3-[(1r,4r)-4-(2-fluoro-6-tolyl)cyclohexyl]-1,8-diaza-2(1H)-naphthalenone] | Non-Active | > 6.30 |
